This note sets out measurements from PubChem BioAssay (NCI).

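The compound was tested at five concentrations on cells cultured in 96-well plates, with a 48-hour exposure period. The concentration for 50% growth inhibition is given as GI50. TGI is the concentration that stops growth completely.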

Holding throughout (test): DTP human tumour cell line panel, 48 h
Test [1] has as its system SN12C renal.
In test [2] the test system is UACC-257 melanoma.
For test [3], the system named is SNB-19 CNS.
In test [4] the test system is ACHN renal.
For test [5], the system named is COLO 205 colon.
Test [6] has as its system SK-OV-3 ovarian.
The test system of test [7] is RPMI-8226 leukemia.
Test [8] relates to OVCAR-8 ovarian.
In test [9] the test system is SNB-75 CNS.

Usually TGI stands for the concentration giving total growth inhibition. A higher TGI goes with less potent growth arrest. As for `Cc1ccsc1/C=N/NC1=NCCN1`, the TGI in test [1], in test [2], in test [3], in test [4], in test [5] and in [6] was greater than 100 µM in each case. Moreover, the TGI in test [7], in test [8] and in [9] was greater than 100 µM in each case.

For the compound `O=C(O)c1cc(N=Nc2ccc([N+](=O)[O-])cc2)ccc1O`, the total growth inhibition concentration (TGI) was greater than 100 µM in test [1]; 74.7 µM in test [2]; greater than 100 µM in [3]; greater than 100 µM in test [4]; greater than 100 µM in test [5]; greater than 100 µM in [6]. In addition, the total growth inhibition concentration (TGI) in [7] is 53.3 µM; in [8] it was greater than 100 µM; in [9], greater than 100 µM.

On to `O=Cc1c2c(cc3c1CC1(C3)Cc3cc4c(c(C=O)c3C1)CCCC4)CCCC2`, for which the total growth inhibition concentration (TGI) in test [1] is greater than 31.6 µM; in test [2] it was greater than 31.6 µM; in [3], greater than 100 µM; in test [4] it was greater than 31.6 µM; in [5] it was greater than 31.6 µM; in test [6] it was greater than 31.6 µM. For the same compound, the figures for the TGI in test [7], in test [8] and in test [9] were 30.3 µM, greater than 31.6 µM and greater than 100 µM, respectively.

Regarding `N/C(=N\N=C\c1cc2ccccc2s1)c1cnccn1`, the TGI in test [1], in [2], in test [3], in [4], in test [5] and in test [6] was greater than 100 µM in each case. Also, the TGI in test [7] is greater than 100 µM; in test [8], greater than 100 µM; in test [9] it was 79.3 µM.

In the case of `Cc1sc2c(c1C)C(=O)c1cccn1-2`, the total growth inhibition concentration (TGI) in [1], in test [2], in test [3], in [4], in test [5] and in [6] was greater than 100 µM each time. Besides, the total growth inhibition concentration (TGI) in [7], in test [8] and in [9] was greater than 100 µM in each case.

As to `CCO/C(O)=C(/C(=N)N1CCOCC1)C(=O)Nc1cccc(C(F)(F)F)c1`, the TGI in test [1], in test [2], in test [3], in test [4], in [5] and in [6] was greater than 100 µM each time. For the same compound, the concentration for total growth inhibition (TGI) in [7], in test [8] and in test [9] was greater than 100 µM each time.

Broadly, the GI50 is the concentration giving 50% growth inhibition. With `C1=N[C@]23C(=N[C@H](N=C2NCc2ccco2)[C@]24N=CNC2=N[C@H]3N=C4NCc2ccco2)N1`, the GI50 in test [1], in test [2], in test [3], in [4], in test [5] and in [6] was greater than 100 µM each time. Moreover, the GI50 in test [7] is greater than 100 µM; in test [8], greater than 100 µM; in test [9], 67.1 µM. The TGI in test [1], in [2], in [3], in test [4], in test [5] and in test [6] was greater than 100 µM in each case. In addition, the TGI in test [7], in test [8] and in [9] was greater than 100 µM each time.

Consider `COc1ccccc1C1C2=C(COC2=O)Oc2cc3c(cc21)OCO3` (stereo not given), for which the concentration for total growth inhibition (TGI) in [1] was greater than 100 µM; in test [2], greater than 100 µM; in [3], 72.3 µM; in test [4], greater than 100 µM; in test [5] it was 14.2 µM; in [6], 45.9 µM. In addition, the TGI in test [7] is greater than 59.2 µM; in test [8], greater than 56.2 µM; in test [9] it was 21.9 µM.

As for `Cn1c(N/N=C/c2ccccc2)nc(-c2ccc3c(c2)OCO3)c(C#N)c1=O`, the total growth inhibition concentration (TGI) in [1], in test [2], in test [3], in test [4], in test [5] and in test [6] was greater than 100 µM throughout. The concentration for total growth inhibition (TGI) is greater than 100 µM in test [7], 90.6 µM in test [8] and greater than 100 µM in test [9].

In the case of `C=CCn1c(-c2cc(C(C)(C)C)c(O)c(C(C)(C)C)c2)cs/c1=N\C(P(=O)(O)O)P(=O)(O)O`, the total growth inhibition concentration (TGI) in test [1], in test [3], in test [4], in [5], in [6] and in test [7] was greater than 100 µM in each case. For the same compound, the total growth inhibition concentration (TGI) in test [8] and in test [9] was greater than 100 µM each time.

As for `N=c1c2sc3nc4ccccc4n3c2ncn1Cc1ccccc1`, the TGI in test [2], in test [3], in [4], in test [5], in test [6] and in test [7] was greater than 100 µM each time. In addition, the TGI in [8] and in [9] was greater than 100 µM each time.

For the compound `CN(C)c1ccc(/C=C/C(=O)c2cc(C(C)(C)C)c(O)c(C(C)(C)C)c2)cc1`, the concentration for total growth inhibition (TGI) is greater than 38.7 µM in [1]; greater than 100 µM in [3]; greater than 100 µM in [4]; 2.65 µM in [5]; greater than 100 µM in test [6]; 8.63 µM in test [7]. Besides, the TGI was greater than 100 µM in test [8] and 0.856 µM in [9].

Consider `O=C1CC(c2ccc(Cl)cc2)C2(C(=O)NC(=S)NC2=O)C(c2ccc(Cl)cc2)C1` (stereo not given), for which the total growth inhibition concentration (TGI) was 40.6 µM in test [1]; 37.6 µM in [2]; 36.6 µM in [3]; greater than 100 µM in test [4]; 30.6 µM in [5]; 29 µM in [6]. The TGI in test [7] came to 51.2 µM; in test [9], 30.2 µM.

As for `COc1cccc(N/C(C)=C2/CCOC2=O)c1`, the TGI in test [1], in test [3], in test [4], in [5], in test [6] and in [7] was greater than 10 µM each time. Moreover, the TGI in test [8] and in [9] was greater than 10 µM in each case.
